{"source": "PubChem BioAssay AID220", "about": "(DTP/NCI, 2004)", "system": "CD8F1 mice, subcutaneous mammary adenocarcinoma, T/C%", "test": "NCI In Vivo Anticancer Drug Screen. Data for tumor model Mammary Adenocarcinoma CD8F1 (subcutaneous) in CD8F1", "conditions": "higher = larger tumour", "in_short": "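Ratio of treated to vehicle-control outcome, based on either survival or tumor size, in mice bearing transplantable tumors given the test compound.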", "key": {"[1]": {"conditions": "endpoint: median tumor weight change, dose: 250.0 mg/kg/injection, schedule: Q01DX001 (ip), vehicle: suspension in saline"}}, "note": "Values joined by “and” are separate entries in the source; they are usually repeats but may differ in a detail not shown here. Equal values may be shown once. Inconclusive results are not listed."}
{"smiles": "C[C@@H]1C[C@@H]([C@H](O)CC2CC(=O)NC(=O)C2)C(=O)[C@@H](C)C1", "values": [{"measurement": "T/C", "setting": "endpoint: median tumor weight change, dose: 62.5 mg/kg/injection, schedule: Q01DX001 (ip), vehicle: suspension in saline", "value": "57 % of control"}, {"measurement": "T/C", "setting": "endpoint: median tumor weight change, dose: 125.0 mg/kg/injection, schedule: Q01DX001 (ip), vehicle: suspension in saline", "value": "72 % of control"}, {"measurement": "T/C", "setting": "[1]", "value": "57 % of control"}]}
{"smiles": "CCCCCCCCCCS(=O)CC(CO)NC(=O)/C=C/c1c(C)[nH]c(=O)[nH]c1=O", "note": "(configuration not stated)", "values": [{"measurement": "T/C", "setting": "endpoint: median tumor weight (est.), dose: 0.75 mg/kg/injection, schedule: Q07DX005 (ip), vehicle: saline with Tween-80", "value": "85 % of control"}, {"measurement": "T/C", "setting": "endpoint: median tumor weight (est.), dose: 1.5 mg/kg/injection, schedule: Q07DX005 (ip), vehicle: saline with Tween-80", "value": "100 % of control and 106 % of control"}, {"measurement": "T/C", "setting": "endpoint: median tumor weight (est.), dose: 3.0 mg/kg/injection, schedule: Q07DX005 (ip), vehicle: saline with Tween-80", "value": "124 % of control and 113 % of control"}, {"measurement": "T/C", "setting": "endpoint: median tumor weight (est.), dose: 6.0 mg/kg/injection, schedule: Q07DX005 (ip), vehicle: saline with Tween-80", "value": "76 % of control"}, {"measurement": "T/C", "setting": "endpoint: median tumor weight (est.), dose: 12.0 mg/kg/injection, schedule: Q07DX005 (ip), vehicle: saline with Tween-80", "value": "23 % of control"}, {"measurement": "T/C", "setting": "endpoint: median tumor weight (est.), dose: 48.0 mg/kg/injection, schedule: Q07DX005 (ip), vehicle: saline with Tween-80", "value": "76 % of control"}]}
{"smiles": "OC1OC2COC(c3ccccc3)OC2C(O)C1O", "note": "(configuration not stated)", "values": [{"measurement": "T/C", "setting": "endpoint: median tumor weight change, dose: 50.0 mg/kg/injection, schedule: Q01DX001 (ip), vehicle: water", "value": "105 % of control"}, {"measurement": "T/C", "setting": "endpoint: median tumor weight change, dose: 100.0 mg/kg/injection, schedule: Q01DX001 (ip), vehicle: water", "value": "80 % of control"}, {"measurement": "T/C", "setting": "endpoint: median tumor weight change, dose: 200.0 mg/kg/injection, schedule: Q01DX001 (ip), vehicle: water", "value": "101 % of control"}, {"measurement": "T/C", "setting": "endpoint: median tumor weight change, dose: 400.0 mg/kg/injection, schedule: Q01DX001 (ip), vehicle: water", "value": "59 % of control"}, {"measurement": "T/C", "setting": "endpoint: median tumor weight change, dose: 800.0 mg/kg/injection, schedule: Q01DX001 (ip), vehicle: water", "value": "62 % of control"}, {"measurement": "T/C", "setting": "endpoint: median tumor weight change, dose: 1600.0 mg/kg/injection, schedule: Q01DX001 (ip), vehicle: water", "value": "90 % of control"}]}
{"smiles": "Cc1cn(C2CC(F)C(CO)O2)c(=O)[nH]c1=O", "note": "(configuration not stated)", "values": [{"measurement": "T/C", "setting": "[1]", "value": "71 % of control"}, {"measurement": "T/C", "setting": "endpoint: median tumor weight change, dose: 500.0 mg/kg/injection, schedule: Q01DX001 (ip), vehicle: suspension in saline", "value": "69 % of control"}, {"measurement": "T/C", "setting": "endpoint: median tumor weight change, dose: 1000.0 mg/kg/injection, schedule: Q01DX001 (ip), vehicle: suspension in saline", "value": "79 % of control"}]}
{"smiles": "CC/C(=C(\\c1ccccc1)c1ccc(OCCN(C)C)cc1)c1ccccc1", "values": [{"measurement": "T/C", "setting": "endpoint: mean tumor weight (est.), dose: 150.0 mg/kg/injection, schedule: Q07DX002 (ip), vehicle: saline", "value": "102 % of control"}, {"measurement": "T/C", "setting": "endpoint: mean tumor weight (est.), dose: 200.0 mg/kg/injection, schedule: Q07DX002 (ip), vehicle: saline", "value": "100 % of control"}, {"measurement": "T/C", "setting": "endpoint: mean tumor weight, dose: 100.0 mg/kg/injection, schedule: Q07DX007 (ip), vehicle: saline", "value": "45 % of control"}, {"measurement": "T/C", "setting": "endpoint: mean tumor weight, dose: 150.0 mg/kg/injection, schedule: Q07DX008 (ip), vehicle: saline", "value": "52 % of control"}, {"measurement": "T/C", "setting": "endpoint: mean tumor weight, dose: 200.0 mg/kg/injection, schedule: Q07DX007 (ip), vehicle: saline", "value": "15 % of control"}, {"measurement": "T/C", "setting": "endpoint: mean tumor weight, dose: 200.0 mg/kg/injection, schedule: Q07DX008 (ip), vehicle: saline", "value": "31 % of control"}, {"measurement": "T/C", "setting": "endpoint: median tumor weight change, dose: 25.0 mg/kg/injection, schedule: Q01DX001 (ip), vehicle: suspension in saline", "value": "105 % of control"}, {"measurement": "T/C", "setting": "endpoint: median tumor weight change, dose: 50.0 mg/kg/injection, schedule: Q01DX001 (ip), vehicle: suspension in saline", "value": "111 % of control"}, {"measurement": "T/C", "setting": "endpoint: median tumor weight change, dose: 100.0 mg/kg/injection, schedule: Q01DX001 (ip), vehicle: suspension in saline", "value": "150 % of control"}, {"measurement": "T/C", "setting": "endpoint: median tumor weight change, dose: 200.0 mg/kg/injection, schedule: Q01DX001 (ip), vehicle: suspension in saline", "value": "158 % of control"}]}
{"smiles": "CCOC(=O)C1C2OC(=O)C(C(=O)C2CN(CCCl)CCCl)C1C1CC=C(CC2=CCC(C3C4C(=O)OC(C(CN(CCCl)CCCl)C4=O)C3C(=O)OCC)CC2)CC1", "note": "(configuration not stated)", "values": [{"measurement": "T/C", "setting": "endpoint: median tumor weight (est.), dose: 12.5 mg/kg/injection, schedule: Q07DX005 (ip), vehicle: Klucel (hydroxypropylcellulose) (HPC)", "value": "49 % of control"}, {"measurement": "T/C", "setting": "endpoint: median tumor weight (est.), dose: 25.0 mg/kg/injection, schedule: Q07DX005 (ip), vehicle: Klucel (hydroxypropylcellulose) (HPC)", "value": "70 % of control"}, {"measurement": "T/C", "setting": "endpoint: median tumor weight (est.), dose: 50.0 mg/kg/injection, schedule: Q07DX005 (ip), vehicle: Klucel (hydroxypropylcellulose) (HPC)", "value": "31 % of control"}, {"measurement": "T/C", "setting": "endpoint: median tumor weight (est.), dose: 100.0 mg/kg/injection, schedule: Q07DX005 (ip), vehicle: Klucel (hydroxypropylcellulose) (HPC)", "value": "1 % of control"}]}
